Source: ChEMBL document CHEMBL5042478, “Design, Synthesis, and Evaluation of VHL-Based EZH2 Degraders to Enhance Therapeutic Activity against Lymphoma” (J Med Chem, 2021)
Calls of active or inactive are those of the source. No cut-off for these calls is given here.

Key:
[1] = Toxicity in nude BALB/c mouse xenografted with SU-DHL-6 cells assessed as weight loss at 42.5 mg/kg, ip administered for 6 times weekly for 3 weeks; type: organism-based; conditions: in vivo, 504 h
SU-DHL-6 [2] = experiment: Antiproliferative activity against human SU-DHL-6 cells assessed as viable cells at 10 uM by cello meter auto T4 cell counter relative to control; type: functional; conditions: read-out: Activity
SU-DHL-6 [3] = experiment: Induction of apoptosis in human SU-DHL-6 cells at 1 to 5 uM incubated for 48 hrs by Annexin V/propidium iodide staining based flow cytometry; type: functional, cell-based; conditions: dose 1-5 µM
SU-DHL-2 [4] = experiment: Antiproliferative activity against human SUDHL2 cells assessed as viable cells at 10 uM by cello meter auto T4 cell counter relative to control; type: functional; conditions: read-out: Activity
SU-DHL-6 [5] = experiment: Antitumor activity against human SU-DHL-6 cells xenografted in nude Balb/c mouse assessed as reduction in H3K27me3 level in tumor tissue at 42.5 mg/kg, ip administered for 6 times weekly for 3 weeks by Western blot analysis; type: functional, organism-based
SUD4 = experiment: Antiproliferative activity against human SU-DHL-4 cells assessed as viable cells at 10 uM by cello meter auto T4 cell counter relative to control; type: functional; conditions: read-out: Activity
SU-DHL-6 [6] = experiment: Induction of cell cycle arrest in human SU-DHL-6 cells assessed as accumulation of cells at sub G1 phase at 1 to 5 uM after 24 hrs by flow cytometry; type: functional, cell-based; conditions: dose 1-5 µM
SU-DHL-2 [7] = experiment: Antiproliferative activity against EZH2 knockdown human SUDHL2 cells assessed as cell growth inhibition measured upto 6 days; type: functional, cell-based; conditions: time day <=6
SU-DHL-6 [8] = experiment: Induction of cell cycle arrest in human SU-DHL-6 cells assessed as accumulation of cells at G0/G1 phase at 1 to 5 uM after 24 hrs by flow cytometry; type: functional, cell-based; conditions: dose 1-5 µM

**Q.** With `CCN(c1cc(-c2ccc(CN3CCOCC3)cc2)cc(C(=O)NCc2c(C)cc(C)[nH]c2=O)c1C)C1CCOCC1` [TAZEMETOSTAT] as the molecule, how does the Activity [1] read?
**A.** Non-Toxic

**Q.** And the viability at 10 µM (SU-DHL-6 [2])?
**A.** 25%

**Q.** And the Activity (SU-DHL-6 [3])?
**A.** inactive

**Q.** What about the viability at 10 µM (SU-DHL-2 [4]) of the same molecule?
**A.** 25%

**Q.** What about the Activity (SU-DHL-6 [5]) of the same molecule?
**A.** Active

**Q.** And the viability at 10 µM (SUD4)?
**A.** 25%

**Q.** And the Activity (SU-DHL-6 [6])?
**A.** inactive

**Q.** What about the Activity (SU-DHL-2 [7]) of the same molecule?
**A.** Active

**Q.** And the Activity (SU-DHL-6 [8])?
**A.** Active
